{"source": "patent US9550808B2", "about": "“Peptide inhibitors of nicotinic acetylcholine receptor” (LIMITED LIABILITY COMPANY SYNEURO, priority 2013, dated 2017)", "key": {"[1]": {"system": "mimic wrinkles", "conditions": "cited from earlier work"}, "[2]": {"biological_target": "T1, muscle-type nicotinic acetylcholine receptor (α1, β1, δ and ε-subunits) (Homo sapiens, UniProt P02708+Q04844+Q07001)", "T1 construct": "expressed in transfected cells; host or cells: Xenopus laevis oocytes (nuclear injection of plasmids, CMV promoter)", "T1 sequence (P02708 21-457)": "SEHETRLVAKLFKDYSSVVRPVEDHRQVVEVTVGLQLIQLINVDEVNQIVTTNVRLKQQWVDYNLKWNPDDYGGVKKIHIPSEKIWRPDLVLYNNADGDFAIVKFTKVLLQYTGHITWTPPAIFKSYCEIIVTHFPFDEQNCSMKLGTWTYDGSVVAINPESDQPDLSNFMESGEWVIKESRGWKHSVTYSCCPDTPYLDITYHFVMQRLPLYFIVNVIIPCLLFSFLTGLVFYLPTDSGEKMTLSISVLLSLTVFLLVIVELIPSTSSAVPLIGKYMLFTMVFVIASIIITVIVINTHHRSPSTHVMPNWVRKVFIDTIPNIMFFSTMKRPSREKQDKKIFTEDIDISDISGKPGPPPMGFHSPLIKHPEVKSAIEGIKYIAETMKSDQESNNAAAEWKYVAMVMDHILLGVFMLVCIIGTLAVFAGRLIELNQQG", "T1 sequence (Q04844 21-493)": "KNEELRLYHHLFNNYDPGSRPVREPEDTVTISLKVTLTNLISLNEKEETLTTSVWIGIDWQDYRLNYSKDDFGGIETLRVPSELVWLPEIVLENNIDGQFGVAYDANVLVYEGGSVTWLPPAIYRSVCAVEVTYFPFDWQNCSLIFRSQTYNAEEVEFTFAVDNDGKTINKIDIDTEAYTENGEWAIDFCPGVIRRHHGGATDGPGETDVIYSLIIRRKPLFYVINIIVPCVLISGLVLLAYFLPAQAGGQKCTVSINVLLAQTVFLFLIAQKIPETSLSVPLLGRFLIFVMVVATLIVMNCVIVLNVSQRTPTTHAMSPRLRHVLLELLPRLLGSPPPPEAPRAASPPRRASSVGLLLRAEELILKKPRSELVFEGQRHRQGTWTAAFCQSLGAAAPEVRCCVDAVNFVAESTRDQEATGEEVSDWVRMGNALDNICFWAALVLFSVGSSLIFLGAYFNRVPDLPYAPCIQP", "T1 sequence (P11230 24-501, further chain)": "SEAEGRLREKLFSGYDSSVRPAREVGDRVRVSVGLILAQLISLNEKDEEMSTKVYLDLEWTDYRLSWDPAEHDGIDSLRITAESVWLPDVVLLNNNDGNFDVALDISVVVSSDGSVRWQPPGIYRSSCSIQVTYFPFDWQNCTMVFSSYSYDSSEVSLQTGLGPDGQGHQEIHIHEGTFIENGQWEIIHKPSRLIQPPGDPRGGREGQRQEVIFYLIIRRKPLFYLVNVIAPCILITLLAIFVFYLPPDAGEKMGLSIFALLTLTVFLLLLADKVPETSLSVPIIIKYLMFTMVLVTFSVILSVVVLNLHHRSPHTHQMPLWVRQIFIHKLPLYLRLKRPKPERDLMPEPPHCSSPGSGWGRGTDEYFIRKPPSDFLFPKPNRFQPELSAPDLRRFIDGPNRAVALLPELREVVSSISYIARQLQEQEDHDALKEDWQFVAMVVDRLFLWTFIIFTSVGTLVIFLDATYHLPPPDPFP", "T1 sequence (Q07001 22-517)": "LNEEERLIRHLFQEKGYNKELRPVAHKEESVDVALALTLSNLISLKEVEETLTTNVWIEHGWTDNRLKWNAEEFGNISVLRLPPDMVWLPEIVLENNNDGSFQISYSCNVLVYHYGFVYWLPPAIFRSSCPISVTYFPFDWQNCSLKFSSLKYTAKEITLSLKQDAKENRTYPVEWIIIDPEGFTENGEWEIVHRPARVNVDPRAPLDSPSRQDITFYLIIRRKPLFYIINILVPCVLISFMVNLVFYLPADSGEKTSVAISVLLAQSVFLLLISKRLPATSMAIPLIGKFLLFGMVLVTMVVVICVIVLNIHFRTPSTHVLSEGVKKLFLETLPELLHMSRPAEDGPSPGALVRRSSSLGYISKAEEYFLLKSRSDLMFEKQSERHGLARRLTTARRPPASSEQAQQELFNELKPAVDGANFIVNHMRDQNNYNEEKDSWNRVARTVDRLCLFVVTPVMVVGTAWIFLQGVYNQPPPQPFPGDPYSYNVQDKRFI", "test": "Inhibition of acetylcholine-induced current through muscle-type nAChR expressed in Xenopus laevis oocytes (two-electrode voltage clamp)", "format": "cell-based", "conditions": "for inhibiting activity towards the muscle receptor, retrosequences compared with initial Az3 and [Tyr2]Az3: 1 mM"}, "[3]": {"system": "male Balb mice", "test": "Acute toxicity in mice (intraperitoneal and per os)", "format": "in vivo", "conditions": "for acute toxicity after intraperitoneal administration: male Balb mice, 1, 3, 10 and 30 mg/kg i.p.; for acute toxicity per os (administration into the stomach): male Balb mice, 2.5, 10, 40, 160 mg/kg per os", "protocol": "Estimation of acute toxicity (LD50) after intraperitoneal administration of peptide H-Trp-Trp-Pro-Lys-Pro-OH (SEQ ID NO: 1) was carried out on 40 male Balb mice weighting 20-23 g, separated into five equal groups. Mice were intraperitoneally injected with the peptide at doses of 1 mg/kg, 3 mg/kg, 10 mg/kg and 30 mg/kg in 0.2 ml sterile 0.9% NaCl solution. Control animals were injected with same volume of 0.9% NaCl.\nInvestigation of acute toxicity (LD50 per os) after administration of the peptide directly into a stomach by a special catheter was conducted on 40 male Balb mice weighting 20-23 g. Animals were randomly divided into 5 groups. The drug was applied at doses 2.5 mg/kg, 10 mg/kg, 40 mg/kg, 160 mg/kg in 0.2 ml sterile solution of 0.9%. Control animals were injected with the same volume of 0.9% NaCl."}, "[4]": {"conditions": "cream containing 5% Vialox, 28-day application"}}, "note": "Non-standard residues stand in square brackets, D forms with d. Residues, ends and D or L forms follow the SMILES beside them. *: point of attachment. Dab = NCC[C@H](N)C(=O)O; NHBn = c1ccc(CN*)cc1; βAla = NCCC(=O)O"}
{"compound": "NCCC(=O)N1CCC[C@H]1C(=O)N[C@@H](CCN)C(=O)NCc1ccccc1", "note": "[Syn-Ake, H-β-Ala-Pro-Dab-NHBzl] (H-[βAla]-Pro-[Dab]-NHBn)", "values": [{"measurement": "decrease of depth of wrinkles on foreheads", "setting": "[1]; cream containing 4% Syn-Ake, 28-day application, volunteers", "value": "up to 52%"}, {"measurement": "IC50", "setting": "[2]", "value": 180, "unit": "µM"}]}
{"compound": "Ac-Glu-Glu-Met-Gln-Arg-Arg-NH2 (Ac-EEMQRR-NH2) [argireline, cosmetic hexapeptide repeating a fragment of SNAP 25]", "values": [{"measurement": "decrease in the depth of mimic wrinkles", "setting": "[1]; cream containing 10% argireline, topical 30-day use, volunteers", "value": 30, "unit": "%"}]}
{"compound": "DNWWPKPPHQGPRPPRPRPKP [azemiopsin, reference compound]", "values": [{"measurement": "blockage of the muscle receptor activity", "setting": "[2]; 50 μM, 20 μM acetylcholine (FIG. 1)", "value": "Complete blockage"}]}
{"compound": "H-Gly-Pro-Arg-Pro-Ala-NH2 (H-GPRPA-NH2) [Vialox]", "values": [{"measurement": "reduction of skin roughness", "setting": "[1]; [4]", "value": "up to 47%"}, {"measurement": "reduction of wrinkle size", "setting": "[1]; [4]", "value": "up to 49%"}]}
{"compound": "H-Tyr-D-Ala-Gly-Phe-Leu-OH [Leuphasyl]", "values": [{"measurement": "enhancement of argireline effect", "setting": "[1]; Leuphasyl in combination with argireline", "value": 1.5, "unit": "fold"}]}
{"compound": "H-WWPKP-OH [SEQ ID NO: 1, H-Trp-Trp-Pro-Lys-Pro-OH]", "values": [{"measurement": "acute toxicity after intraperitoneal administration", "setting": "[3]", "value": "did not reveal any toxic effects"}, {"measurement": "acute toxicity after intraperitoneal administration", "setting": "[3]; listed as SEQ ID NO:1", "value": "does not exhibit toxicity"}, {"measurement": "acute toxicity per os (administration into the stomach)", "setting": "[3]", "value": "no toxic effect was observed"}, {"measurement": "acute toxicity per os (administration into the stomach)", "setting": "[3]; listed as SEQ ID NO:1", "value": "does not exhibit toxicity"}, {"measurement": "inhibition of acetylcholine induced currents, comparison of overlapping pentapeptide fragments of azemiopsin", "setting": "[2]; 150 μg/ml (FIG. 2)", "value": "most active"}]}
{"compound": "H-WYPKP-NH2 [SEQ ID NO: 42, H-Trp-Tyr-Pro-Lys-Pro-NH2]", "values": [{"measurement": "IC50", "setting": "[2]", "value": 23, "unit": "µM"}, {"measurement": "times more functionally active than commercial analogue Syn-Ake", "setting": "[2]; ratio of IC50 values", "value": "eight"}]}
{"compound": "PKPWW", "values": [{"measurement": "inhibiting activity towards the muscle receptor, retrosequences compared with initial Az3 and [Tyr2]Az3", "setting": "[2]", "value": "reduced"}]}
{"compound": "PKPYW", "values": [{"measurement": "inhibiting activity towards the muscle receptor, retrosequences compared with initial Az3 and [Tyr2]Az3", "setting": "[2]", "value": "reduced"}]}
